Each structure is given as a SMILES string.

This passage reports viability results from article PMC12040169 (PLOS Biology, 2025).

This series can be described thus: in vitro. Particulars: human, hela cells, % viability.
For the compound `Cc1cc(C)nc(N2CCC(CC(=O)N3CCCCC3CN3CCCC3)CC2)n1` (centres unmarked) [CBK286254], the viability at 28.5 h, 10 µM stood at 95.6%.

Turning to `CCC(c1cccc(OC)c1)N(C)C(=O)CC1CCN(c2nc(C)cc(C)n2)CC1` (centres unmarked) [CBK286255], the viability at 28.5 h, 10 µM came out at 99.7%.

With `Cc1nc(C2(O)CCCN(C3CCCC3)CC2)sc1COc1ccc(F)c(F)c1` (centres unmarked) [CBK286259], the viability at 28.5 h, 10 µM amounted to 89.7%.

In the case of `O=C(c1sc2ccccc2c1C1CCN(Cc2ccccc2F)C1)N1CCOCC1` (centres unmarked) [CBK286260], the viability at 28.5 h, 10 µM is 103%.

Consider `CC(CN(C)C(=O)CC1CCN(C(=O)CC2CCCCC2)CC1)c1ccccc1` (centres unmarked) [CBK286268], for which the viability at 28.5 h, 10 µM worked out at 97.9%.

Turning to `NC(=O)C1(Cc2cccc(-c3cccs3)c2)CCN(C(=O)Cc2ccccc2)CC1` [CBK286272], the viability at 28.5 h, 10 µM came to 84.8%.

Turning to `CNC(=O)C1(Cc2ccccc2-c2ccccc2)CCN(C(=O)Cc2ccc(C)cc2)CC1` [CBK286274], the viability at 28.5 h, 10 µM came out at 88.4%.

Take `COCc1ccc(C(=O)N2CCC(Cc3ccccc3-c3cccs3)(C(N)=O)CC2)cc1` [CBK286276]: the viability at 28.5 h, 10 µM is 102%.

For `COc1ccc(CN2CCC(Cc3ccccc3-c3cccc(F)c3)(C(N)=O)CC2)cc1` [CBK286277], the viability at 28.5 h, 10 µM was 99.8%.

Consider `COc1cccc(C(NC(=O)c2cc(CN3CCOCC3)c(C)o2)c2ccccc2)c1` (centres unmarked) [CBK286279], for which the viability at 28.5 h, 10 µM came to 93.4%.

Regarding `O=C1CCCC[C@@H]2[C@@H](N1)[C@H](c1ccccc1)CN2Cc1ccc2ccccc2n1` [CBK286281], the viability at 28.5 h, 10 µM was 93.1%.

As to `O=C(Cc1cccs1)N1CCC(c2nnc(-c3ccccc3)c(-c3ccccc3)n2)CC1` [CBK286283], the viability at 28.5 h, 10 µM is 98.8%.

Regarding `COc1ccc(OC)c(C(O)CN2CCCC(C(=O)N3CCCCCC3)C2)c1` (centres unmarked) [CBK286286], the viability at 28.5 h, 10 µM was found to be 87.5%.

Regarding `O=C(c1ccccc1)N1C[C@H](c2ccc(F)cc2)[C@H]2CN(Cc3ccccc3F)CC[C@H]21` [CBK286289], the viability at 28.5 h, 10 µM worked out at 90.1%.

As to `COc1ccc(CN2CC[C@@H]3[C@H](C2)[C@@H](c2ccc(F)cc2)CN3C(=O)c2ccccc2)cc1` [CBK286290], the viability at 28.5 h, 10 µM was 92.3%.

As for `O=C(NCc1nnc(-c2cccs2)o1)c1ccccc1-c1ccccc1` [CBK286293], the viability at 28.5 h, 10 µM amounted to 112%.

As to `O=C(NCc1nnc(-c2cccs2)o1)C(c1ccccc1)c1ccccc1` [CBK286294], the viability at 28.5 h, 10 µM turned out to be 92.6%.

For `O=C(NCc1nnc(-c2cccs2)o1)c1cccc(-c2ccc(F)cc2)c1` [CBK286296], the viability at 28.5 h, 10 µM turned out to be 86.9%.

For `OC1CCN(Cc2c([C@H]3CCCO3)[nH]c3ncccc23)CC1` [CBK286301], the viability at 28.5 h, 10 µM turned out to be 110%.

As to `Cc1[nH]c(=O)[nH]c(=O)c1CC(=O)N1CCc2ncc(Cl)cc2C1` [CBK286302], the viability at 28.5 h, 10 µM is 101%.

`CC(C)C(=O)Nc1ccc2nc(-c3ccoc3)c(-c3ccoc3)nc2c1` [CBK286304]: the viability at 28.5 h, 10 µM was 96.9%.

With `CC(C)N1CC(C(=O)N(C)C)C2(CCc3ccccc3C2O)C1` (centres unmarked) [CBK286305], the viability at 28.5 h, 10 µM turned out to be 89.1%.

With `O=C1NC2(CCN(C(=O)Cc3ccc(-c4ccccc4)cc3)CC2)Nc2ccccc21` [CBK286309], the viability at 28.5 h, 10 µM stood at 101%.

Turning to `O=C(NCc1cccs1)C1(Cc2ccccc2-c2coc3ccccc23)CCOCC1` [CBK286310], the viability at 28.5 h, 10 µM was 108%.

With `O=C1NC2(CCN(C(=O)CCc3ccc(-c4ccccc4)o3)CC2)Nc2ccccc21` [CBK286316], the viability at 28.5 h, 10 µM was 106%.

In the case of `Cc1sc2nc(Cc3ccccc3)n(C3CCN(C(=O)c4ccco4)CC3)c(=O)c2c1C` [CBK286317], the viability at 28.5 h, 10 µM came out at 97.3%.

For `CC1CCCCN1C(=O)CN1C(=O)[C@H]2CCCN2C(=O)c2ccccc21` (some centres unmarked) [CBK286320], the viability at 28.5 h, 10 µM worked out at 99.4%.

As to `COc1ccc(CNC(=O)CN2C(=O)[C@@H]3CCCN3C(=O)c3ccccc32)cc1` [CBK286322], the viability at 28.5 h, 10 µM stood at 89.7%.

`OC(CN1CCC(O)(c2ccc(C(F)(F)F)cc2)CC1)c1ccccc1` (centres unmarked) [CBK286323]: the viability at 28.5 h, 10 µM came out at 102%.

As for `OC(CN1CCC(O)(c2cccc(C(F)(F)F)c2)CC1)c1ccccc1` (centres unmarked) [CBK286324], the viability at 28.5 h, 10 µM is 109%.

On to `Cc1cccc(C2(O)CCN(CC(O)c3ccccc3)CC2)c1` (centres unmarked) [CBK286325], for which the viability at 28.5 h, 10 µM stood at 106%.

For the compound `OC(CN1CCC(O)(c2ccc(F)cc2)CC1)c1ccc(-c2ccccc2)cc1` (centres unmarked) [CBK286328], the viability at 28.5 h, 10 µM came out at 90%.

On to `OC(CN1CCC2(CC1)CC(O)c1cc(F)ccc1O2)c1ccc(-c2ccccc2)cc1` (centres unmarked) [CBK286331], for which the viability at 28.5 h, 10 µM is 102%.

Turning to `Cc1ccccc1C1(O)CCN(CC(O)c2ccc3c(c2)OCCCO3)CC1` (centres unmarked) [CBK286332], the viability at 28.5 h, 10 µM was found to be 103%.

Regarding `COc1ccccc1C1(O)CCN(CC(O)c2ccc(C(C)(C)C)cc2)CC1` (centres unmarked) [CBK286335], the viability at 28.5 h, 10 µM was determined as 96.2%.

Regarding `CC(C)(C)c1ccc(C(O)CN2CCC(O)(c3ccc4c(c3)OCO4)CC2)cc1` (centres unmarked) [CBK286336], the viability at 28.5 h, 10 µM stood at 89.3%.

On to `CCC(NC(=O)C(c1cccs1)c1cccs1)c1ccc(F)cc1` (centres unmarked) [CBK286339], for which the viability at 28.5 h, 10 µM is 93.4%.

Regarding `O=C(NCc1nc(-c2ccccc2)no1)C(c1cccs1)c1cccs1` [CBK286340], the viability at 28.5 h, 10 µM was 109%.

On to `Cc1[nH]c(=O)[nH]c(=O)c1CC(=O)N1Cc2cc(Cl)ccc2OC2(CCOCC2)C1` [CBK286341], for which the viability at 28.5 h, 10 µM amounted to 93%.

As to `COc1ccccc1CN(CCN(C)C)C(=O)Cc1c(C)[nH]c(=O)[nH]c1=O` [CBK286343], the viability at 28.5 h, 10 µM came to 94.2%.

For `Cc1csc(C(Cc2cccs2)NC(=O)Cc2c(C)[nH]c(=O)[nH]c2=O)n1` (centres unmarked) [CBK286345], the viability at 28.5 h, 10 µM amounted to 89.7%.

As for `COc1ccc2c(c1)OC1(CCN(CC(O)c3ccc(-c4ccccc4)cc3)CC1)CC2O` (centres unmarked) [CBK286346], the viability at 28.5 h, 10 µM was 91.2%.

Turning to `COc1ccccc1-c1ccc(CN2CCC(NC(C)=O)(c3ccc(F)cc3)CC2)cc1` [CBK286349], the viability at 28.5 h, 10 µM was found to be 90%.

Regarding `CC(C)n1c(=O)oc2cc(S(=O)(=O)NC(c3ccccc3)c3ccccc3)ccc21` [CBK286350], the viability at 28.5 h, 10 µM turned out to be 91.7%.

As to `O=C(N[C@H]1CC[C@H](O)CC1)C1(Cc2cc(-c3ccc(F)cc3F)no2)CCOCC1` [CBK286352], the viability at 28.5 h, 10 µM stood at 94.9%.

Take `Cc1ccc(C(Cc2ccsc2)NS(=O)(=O)c2ccc3[nH]c(=O)[nH]c(=O)c3c2)nc1` (centres unmarked) [CBK286354]: the viability at 28.5 h, 10 µM was 88.6%.

Consider `Cn1c(=O)oc2cc(S(=O)(=O)Nc3cccc(CCc4ccccn4)c3)ccc21` [CBK286357], for which the viability at 28.5 h, 10 µM was determined as 102%.

Consider `COc1ccc(CN2CCc3cc(OC)c(OC)cc3C2c2ccccc2)cc1CO` (centres unmarked) [CBK286358], for which the viability at 28.5 h, 10 µM was 92.2%.

Consider `COc1cc2c(cc1OC)C(c1ccccc1)N(Cc1ccc(OCCO)cc1)CC2` (centres unmarked) [CBK286359], for which the viability at 28.5 h, 10 µM amounted to 80%.

In the case of `O=c1[nH]c(=O)c2cc(S(=O)(=O)NCCN3CCc4ccccc43)ccc2[nH]1` [CBK286360], the viability at 28.5 h, 10 µM is 91.5%.

With `Cn1ccc2cc(NS(=O)(=O)c3ccc4[nH]c(=O)[nH]c(=O)c4c3)ccc21` [CBK286364], the viability at 28.5 h, 10 µM was found to be 95.4%.

Turning to `O=C1CCc2cc(S(=O)(=O)Nc3ccc(OCc4ccccc4)cc3)ccc2N1` [CBK286365], the viability at 28.5 h, 10 µM was found to be 90%.

Take `O=C1CCc2cc(S(=O)(=O)NC(c3ccccc3)c3ccccc3)ccc2N1` [CBK286367]: the viability at 28.5 h, 10 µM is 93.4%.

By viability is commonly meant a read-out of living cells in per cent, often relative to untreated cells.
